Experimental data: patent US11141389B2, “Agents that inhibit NGLY1 and methods of use thereof” (The Board of Trustees of the Leland Stanford Junior …, priority 2017, dated 2021)
Where two headings read alike, the source gives them in different places. Residues, ends and D or L forms follow the SMILES beside them. *: point of attachment. Cbz = O=C(OCc1ccccc1)*; CH2F = FC*

Columns and labels:
[1] = system: caspases 3/7; assay: Caspase 3/7 inhibition assay (Caspase-Glo, staurosporine-induced U266 cells); type: cell-based; conditions: staurosporine 1 μM, 8 hours
Experimental: We were further interested to see whether this molecule would also hit caspases, similar to the known Ngly1 inhibitor Z-VAD-fmk. […] Inhibition of caspases 3/7 was not observed until a concentration of about 10 μM was reached. In addition, the relative activity was not lowered below the range observed by induced apoptosis
Caspase 3/7 inhibition assay. 1 million U266 cells were suspended in 10 mL RPMI 15% BSA+PS, and plated into a flat-bottom, white-walled 96-well plate (100 μL per well). The plate was incubated at 37° C. overnight. The following day, cells were treated with staurosporine (apoptosis inducer, final concentration 1 μM), WRR139 or Z-VAD-fmk (at final concentrations shown) or DMSO to a final concentration of 2% DMSO (v/v) respectively. The plate was incubated for 8 hours at 37° C. Caspase-Glo kit reagent (company details) was prepared as per instruction from the manufacturer and after equilibration to 23° C. […] of the reagent was added to each well. […] Caspase inhibition was calculated by subtracting background (signal from media containing no cells) and comparison to signal from cells with induced apoptosis (staurosporine only).

[2] = system: H929 cells
Experimental: (§2) Cell survival experiments using the Cell Titer-Glo 2.0 assay were performed in opaque white flat-bottomed 96-well plates. The cells (1.0-2.0×10^4 in 100 μL fresh media) were treated under the desired conditions and incubated for 24 or 48 h before addition of 100 μL assay reagent. Viability was calculated as percent signal compared to vehicle treated cells. Regression analysis and IC50 calculations were performed with GraphPad Prism 7.0.
(§3) U266 and H929: U266 or H929 cells were seeded at a density of 0.1 million cells/mL in RPMI medium (100 μL per well). The following day, carfilzomib, DMSO, or WRR139 were added in DMSO to final concentrations as shown for a maximum final concentration of 1% DMSO (v/v). After 48 h of incubation at 37° C. with 5% CO2, the plate was retrieved and treated with the Cell Titer-Glo 2.0 assay. After 10 minutes incubation the plate was analyzed by measuring the luminescence using a Spectra max®i3x (VWR, Australia) plate reader.

[3] = target: T1, NGly1 (Homo sapiens, UniProt Q96IV0); assay: Gel shift of RNAse B exposed to recombinant Ngly1; type: biochemical; conditions: gel electrophoresis, in the presence of the compound
T1 sequence (Q96IV0 1-654): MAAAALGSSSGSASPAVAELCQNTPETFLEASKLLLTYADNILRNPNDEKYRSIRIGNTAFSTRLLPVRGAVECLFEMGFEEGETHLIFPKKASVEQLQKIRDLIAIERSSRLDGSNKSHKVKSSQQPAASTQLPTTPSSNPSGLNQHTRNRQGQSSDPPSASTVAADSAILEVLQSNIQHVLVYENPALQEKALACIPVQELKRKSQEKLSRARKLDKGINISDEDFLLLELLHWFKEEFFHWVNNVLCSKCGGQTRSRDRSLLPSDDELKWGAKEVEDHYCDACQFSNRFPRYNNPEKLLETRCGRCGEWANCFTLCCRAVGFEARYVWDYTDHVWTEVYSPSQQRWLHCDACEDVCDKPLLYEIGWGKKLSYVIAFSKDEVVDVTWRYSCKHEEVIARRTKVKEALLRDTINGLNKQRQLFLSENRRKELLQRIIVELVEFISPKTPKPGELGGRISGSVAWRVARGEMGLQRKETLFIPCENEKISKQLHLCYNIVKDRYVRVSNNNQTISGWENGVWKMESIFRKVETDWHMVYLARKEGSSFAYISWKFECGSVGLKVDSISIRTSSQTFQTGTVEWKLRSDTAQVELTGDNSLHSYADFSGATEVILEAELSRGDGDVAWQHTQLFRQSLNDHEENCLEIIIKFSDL
Description: To detect direct inhibition of NGly1 by WRR139, the mass shift of RNAse B exposed to recombinant Ngly1 was observed by gel electrophoresis. In the presence of Ngly1, RNAse B was fully converted from its glycosylated band at pXXX to a deglycosylated protein at pXXX (FIG. 4D).

[4] = system: U266 cells
Experimental: as §2, §3

[5] = target: T1, NGly1; assay: Cresswell assay (ddVenus fluorescence on deglycosylation by NGly1) in stably transfected K562 cells; type: cell-based; design: endogenous in cells; host or cells: K562 cells stably transfected with the ddVenus reporter; conditions: for IC50: K562 ddVenus cells, read-out: IC50 (reduction of fluorescence)
Description: The assay used was a modified version of the fluorimetric assay first described by the Cresswell lab in 2011. Prepared by the Steinmetz lab, a stably transfected K562 cell line was used. Mutated to misfold and contain a site for N-glycosylation, the expressed ddVenus would only properly fold, and thus fluoresce, upon deglycosylation by NGly1 and concurrent conversion of the glycosylated asparagine residue to aspartic acid (FIG. 4A). Thus inhibition of NGly1 would not activate fluorescence in this assay. With this method a library of about 600 cysteine-protease inhibitor-like compounds were screened. Six hits were found, all of which were peptide-derived structures with an electrophilic warhead consisting of either a vinyl sulfone or epoxyketone (FIG. 4B).
Screen of ˜600 compounds with the Cresswell Assay. Screens were performed clear, V-bottom 96-well plates. Plates were prepared with negative control 2 μL DMSO (A1) and positive control 1 μL DMSO+1 μL 10 mM Z-VAD-fmk (final conc. 100 uM Z-VAD-fmk; A12-H12). Wells A2-A11 contained 1 μL DMSO, the remaining wells contained 1 μL of 1 mM stocks of compounds from the library.
100 μL of suspended K562 ddVenus cells were added to the plate at 1×10^6 cells/mL. Wells A1-A12 contained cells in growth media. The remaining wells contained cells in growth media supplemented 100 uM carfilzomib.
The mean of fluorescence in FL1 was plotted for each well.
Z-factor for the assay ranged between 0.38-0.85.

[6] = system: Nrf1; assay: 3xPSMA4-ARE dual luciferase reporter assay in Nrf1 overexpressing HEK cells; type: cell-based, Human; conditions: compound prior to carfilzomib
Experimental: The same experiment was performed in Nrf1 overexpressing HEK cells in which NGly1 was inhibited by Z-VAD-fmk prior to incubation with carfilzomib. The caspase inhibitor QVD-OPh served as control to out rule that observed effect resulted from caspase inhibition.
(§1) Luciferase Assays. The construct 3xPSMA4-ARE-Luc (RDB-2415; a kind gift from Senthil Radhakrishnan, Virginia Commonwealth University) was described previously. Briefly, an oligo (5′-[…] […] […] […] […] […] […]-3′) (SEQ ID NO: 10) containing three copies of a putative ARE (shown in uppercase) derived from the first intron of the human PSMA4 gene was annealed to its corresponding reverse-complement oligo and cloned into pGL3-promoter vector (Promega). The promoter reporter was generated by inserting this construct upstream of a minimal SV40 promoter, driving the expression of a firefly luciferase.
Cells were transiently transfected with the firefly (promoter reporters) and renilla luciferase (pRL-TK; Promega) constructs along with effector plasmid as required. Cells were treated with compoubds or vehicle control for 12 hours. Afterwards cells were lysed in the luciferase assays were performed using the dual luciferase reporter assay system (E1910; Promega) according to the instructions from the manufacturer. The firefly luciferase activity was normalized to renilla luciferase activity for all experiments.

[7] = system: multiple myeloma cell lines; assay: Potentiation of proteasome inhibition in multiple myeloma cell lines; type: cell-based
Description: Considering the effect of NGly1 KO or knockdown for proteasome inhibitor potentiation, we hoped to find the same effect through the use of a small molecule inhibitor of NGly1. Attempts to use Z-VAD-fmk to potentiate proteasome inhibition in multiple myeloma cell lines were unsuccessful, possibly due to its activity as a potent pan-caspase inhibitor.

[8] = system: Nrf1; assay: Confocal imaging of Nrf1 localization in Nrf1 overexpressing HEK cells; type: cell-based, Human
Description: We further used confocal microscopy to visualize the localization of Nrf1 in MEFs and Nrf1 overexpressing HEK cells before and after treatment with carfilzomib (FIGS. 2B and C). In absence of carfilzomib Wt and NGly1^−/− MEFs show Nrf1 (in white) in low abundance and mainly in the cytosol (FIG. 2B). After treating the cells with carfilzomib for several hours, wt MEFs show Nrf1 in the nucleus whereas NGly1^−/− MEFs only show a higher abundance of Nrf1 in the cytosol. […] Untreated cells show Nrf1 mainly in the cytosol around the ER. […] Taking all the results in account we conclude that functioning NGly1 is required to activate Nrf1.
Immunofluorescence followed by confocal imaging. MEFs and Nrf-3× Flag overexpressing HEK cells were grown to 80% confluency on cover slips. Cells were treated with NGLy1-, caspase-, and proteasome inhibitors as indicated and allowed to recover in fresh media for one hour before cells were fixed using 100% ice cold methanol. Cells were treated with a primary rabbit monoclonal antibody raised against the N-terminus of Nrf1 (D5B10, Cell Signaling) and a secondary polyclonal Alexa Fluor0647 AffiniPure Fab Fragment Goat Anti-Rabbit IgG (H+L) (Jackson Immuno Research). […] Images were analyzed using Imaris analysis software (version). […]

[9] = system: Nrf1; assay: Immunoblot of Nrf1 processing in Nrf1 overexpressing HEK cells; type: cell-based, Human; conditions: compound before carfilzomib
Description: In a second attempt, we used Nrf1 overexpressing HEK cells and applied the small molecule Z-VAD-fmk (FIG. 1B) to inhibit NGly1 before treating the cells with carfilzomib. […] The higher abundance of the p120 band indicates the existence of the N-glycosylated form of Nrf1 as the main species in cells treated with Z-VAD-fmk. […] Thus, the incorrect processing of Nrf1 that we observed in cells treated with Z-VAD-fmk results from inhibition of NGly1 and not from caspase inhibition.
Nrf-3× Flag overexpressing HEK cells (RDB-2867; a kind gift from Senthil Radhakrishnan, Virginia Commonwealth University) were obtained by cloning Human Nrf1 coding region along with a C-terminal 3× Flag sequence into pcDNA3.1+ (Invitrogen, Carlsbad, Calif.). Cells were grown in Dulbecco's modified Eagle's medium (DMEM) supplemented with 10% fetal bovine serum (Clontech Laboratories), penicillin, and streptomycin (Fisher Scientific) at 37° C. in 5% CO2.
Immunoblot Analysis. Cells were lysed in RIPA buffer (50 mM Tris [pH 7.4], 150 mM NaCl, 1% NP40, 1% Na. Deoxycholate, 0.1% SDS, and 1 mM EDTA) supplemented with protease and phosphatase inhibitor cocktail (Pierce). For detecting Nrf1 a rabbit monoclonal antibody raised against the N terminus (D5B10, Cell Signaling) was used. Other immunoblots were performed with antibodies specific for Flag tag (Sigma-Aldrich) and β-actin (Cell Signaling).

[10] = patients; cited from earlier work
[11] = system: MEF cells; assay: Viability of MEF NGly1-/- versus MEF WT with carfilzomib (WST-1); type: cell-based, Mouse; conditions: 24 h incubation, doses 5-100 nM
[12] = system: Nrf1; assay: 3xPSMA4-ARE dual luciferase reporter assay in MEFs; type: cell-based, Mouse; conditions: 12 hour incubation
Description: According to the theory the active form (p110) of Nrf1 that translocates to the nucleus and activates proteasome genes, is produced upon removal of the N-glycans. Using a construct in which three copies of the antioxidant respond element (ARE) of the human PSMA4 gene were inserted upstream of a SV40 promoter that drives the expression of firefly luciferase in a dual luciferase reporter assay, where plasmids expressing renilla luciferase were used as internal transfection control, we compared the reporter activity in NGly1^−/− MEFs and Wt MEFs after treatment with carfilzomib.
as §1
Cells were transiently transfected with the firefly (promoter reporters) and renilla luciferase (pRL-TK; Promega) constructs along with effector plasmid as required. […]

[13] = system: K562 cells; assay: Carfilzomib sensitivity of CRISPRi-knockdown K562 cell lines; type: cell-based
Experimental: Carfilzomib sensitivity of CRISPRi-knockdown k562 cell lines. Carfilzomib dissolved in DMSO at a concentration of 10 mM was used freshly or stored at −80° C. for no longer than a month without repeated freeze-thaw cycles. K562 cells were seeded at a density of 0.2 million cells/ml in 100 μl of RPMI medium in each well of a 96-well plate for 18 hours before treatment. The next day, serial-diluted Carfilzomib or DMSO was added to the cells with a final concentration of DMSO of 0.1% (v/v) in each well. After 48 hours of incubation at 37° C., the plate was retrieved and stained with a calcein-based LIVE/DEAD® Viability/Cytotoxicity Kit (Thermo Fisher Scientific), according to the manufacturer's instruction. The cells were then counted on an Accuri C6 flow cytometer (BD Biosciences, CA, USA). A total of 10,000 events was collected for each well. The viability was calculated as the percent of calcein-positive cells in each Carfilzomib-treated sample, normalized to that of the DMSO-treated vehicle control.

[14] = system: Proteasome; conditions: blood and PBMCs, cited from earlier work

Q: With `Cc1ccc(S(=O)(=O)/C=C/C(=O)N[C@@H](CCc2ccccc2)C(=O)NCCC(C)C)cc1` [WRR139] as the compound, how does the “concentration at which inhibition of caspases 3/7 is first observed” value [1] read?
A: about 10 μM

Q: And the “increase in killing / reduction of LD50 of carfilzomib” value ([2]; H929, WRR139 plus carfilzomib vs carfilzomib alone)?
A: 2 fold

Q: And the “cell survival, co-inhibition with carfilzomib compared to carfilzomib alone” value ([2]; H929, after 24 hours)?
A: significantly decreased cell survival

Q: And the “deglycosylation of RNAse B by recombinant Ngly1” value [3]?
A: only the original band remains, with no conversion to the deglycosylated form

Q: And the “increase in killing / reduction of LD50 of carfilzomib” value ([4]; U266, WRR139 plus carfilzomib vs carfilzomib alone)?
A: 2.6 fold

Q: What about the “cell survival, co-inhibition with carfilzomib compared to carfilzomib alone” value ([4]; U266, after 24 hours) of the same compound?
A: significantly decreased cell survival

Q: And the “NGly1 inhibition in validation of the hits” value ([5]; FIG. 4C)?
A: inhibit NGly1 in a dose-dependent manner

Q: What about the IC50 [5] of the same compound?
A: 5.5 µM

Q: Which results are given for `COC(=O)C[C@H](NC(=O)[C@H](C)NC(=O)[C@@H](NC(=O)OCc1ccccc1)C(C)C)C(=O)CF` [Z-VAD-fmk, carbobenzoxy-valyl-alanyl-aspartyl-[O-methyl]-fluoromethylketone] (Cbz-Val-Ala-Asp(OMe)-CH2F)?
A: reporter activity [6]: did not show an increased reporter activity; deglycosylation of RNAse B by recombinant Ngly1 [3]: only the original band remains, with no conversion to the deglycosylated form; potentiation of proteasome inhibition [7]: unsuccessful; localization of Nrf1 ([8]; compound prior to incubation with carfilzomib): high abundance of Nrf1 in the cytosol; Nrf1 processing (p120/p110 bands) [9]: abnormal processing of Nrf1; IC50 [5]: 4.4 µM

Q: Which incidence of neuropathy [10] does the source give for `CC(C)C[C@H](NC(=O)[C@H](Cc1ccccc1)NC(=O)c1cnccn1)B(O)O` [bortezomib] here?
A: 30-60%

Q: For `CC(C)C[C@H](NC(=O)[C@H](CCc1ccccc1)NC(=O)CN1CCOCC1)C(=O)N[C@@H](Cc1ccccc1)C(=O)N[C@@H](CC(C)C)C(=O)[C@@]1(C)CO1` [carfilzomib], which “sensitivity of NGly1-/- cells relative to MEF WT” value [11] is on record?
A: over 2 fold

Q: What about the “reporter (PSM) activity” value ([12]; NGly1-/- MEFs) of the same compound?
A: no response

Q: And the “reporter (PSM) activity” value ([12]; Wt MEFs)?
A: increase in PSM activity

Q: What about the “localization of Nrf1” value ([8]; carfilzomib alone) of the same compound?
A: the majority of Nrf1 was observed in the nucleus

Q: And the LD50 ([13]; K562, dCAS9 knockdowns of Nrf1 or NGly1 (sgNrf1-A, sgNrf1-B, sgNGly1))?
A: 20 nM

Q: What about the LD50 ([13]; K562, no sgRNA or control sgRNA) of the same compound?
A: 40 nM

Q: And the “inhibition of proteasome activity” value ([14]; 15 mg/m^2, after the first dose)?
A: > 75%

Q: And the “inhibition of proteasome activity” value ([14]; after five doses)?
A: > 90%
